# Test results: patent US20070093499A1, “Use of dasatinib for the treatment of bone metastasis” (Bristol-Myers Squibb Company, priority 2005, published 2007)
# Ends that are not written are not given here.
# How the values were obtained:
# TPTX rats [1] = test: Inhibition of PTH-induced hypercalcemia (serum calcium) in TPTX rats, oral BMS-354825; assay type: in vivo, rat
# Method: Male Sprague-Dawley TPTX rats with basal serum calcium levels around 7-8 mg/dl were randomly assigned to the experimental groups. Alzet® mini-pumps containing a resorption stimulus (PTH: infusion rate of 0.3 μg/hr) were implanted subcutaneously. In brief, rats were anesthetized with isoflurane (5% of oxygen), the skin of the flank area was disinfected with a topical disinfectant. Following a small incision, a subcutaneous pouch was made with a sterile pair of blunt scissors, a mini-pump was inserted and the incision was closed with a wound clip. Upon drug administration, 500 μl of blood was sampled at the indicated time points by retro-orbital bleeding, the serum was collected and frozen at −80° C. Levels of serum calcium and drug were analyzed accordingly.
# The serum levels of calcium of TPTX rats were quantitated by a photometric assay with the Roche Hitachi 917 (H9 17) automated chemistry analyzer (Indianapolis, Ind.). In this method, calcium reacts with o-cresolphthalein complexone in the presence of 8-hydroxyquinoline to form a purple chromophore. The color intensity of the purple complex is directly proportional to the calcium concentration and is measured photometrically on the analyzer. This method is capable of quantifying 0.2-18.2 mg/dL of serum calcium. For samples >18.2 mg/dL the samples must be diluted in saline and the value multiplied by the appropriate factor.
# Malignancy related hypercalcemia has been strongly linked with bone resorption mediated by stimulation of native osteoclast formation and activity. […] In this model, the thyroid and parathyroid are surgically removed to induce hypocalcemia, then subsequent infusion with PTH stimulates the osteoclast-mediated calcemic response. […]. […] […]. […] […].
# “Zoledronic acid versus placebo in the treatment of skeletal metastases in patients with lung cancer and other solid tumors: a phase III, double-blind, randomized trial—the Zoledronic Acid Lung Cancer and Other Solid Tumors Study Group.” J Clin Oncol 21(16): 3150-7). […] […]. […] […]. Due to the fact that osmotic pump works less efficiently after day 4, we intended not to include the data of calcium levels thereafter. […].
# TPTX rats [2] = test: Serum calcium in thyro-parathyroidectomized rats, IP dosing; assay type: in vivo, rat
# Method: Thyro-parathyroidectomy (TPTX) surgery was performed on male Sprague-Dawley rats (200 gram body weight) as described previously.4 Thyro-parathyroidectomized (TPTX) rats with serum calcium values of 5-8 mg/dl were used for the study (normal reference range is 10-12 mg/dl). On the day of the study (48 hours post-surgery), blood was collected from the tail vein under isoflurane anesthesia, and Alzet mini-pumps (delivering 1 μl/hr) containing 0.3 μg/ml of parathyroid hormone (PTH) were implanted subcutaneously. […] Blood was collected at 3, 6 & 24 hours after dosing and analyzed for serum calcium levels.
# ovariectomized rats = conditions: Missbach et al. 1999; cited from earlier work
# [3] = test system: fetal rat long bone culture; conditions: Missbach et al. 1999; cited from earlier work
# osteoclasts = conditions: cell culture; Murray et al. 2003; cited from earlier work
# bone resorption = conditions: Murray et al. 2003; cited from earlier work
# [4] = test system: TRAP positive osteoclasts in mouse bone marrow cell culture; test: Osteoclast formation (TRAP staining) in mouse bone marrow cell culture; assay type: cell-based
# Method: Bone marrow was harvested by flushing the femur and tibia bones of CDF-1 mice with PBS followed by washing twice with PBS and resuspending in DMEM with 10% FBS (1-2×10^6 cells/m, 10 ml). Cells were then seeded in 24-well plates (2×10^6 cells/well/ml) and were cultured for 6-9 days in DMEM media supplemented with the cytokines: 10 ng/ml recombinant mouse M-CSF-1 and 100 ng/ml recombinant mouse RANK ligand to induce osteoclast development. Culture medium was replaced every two days till day 5 and there was no medium replacing between day 6 and day 9. […] On days 5, 7, and 9, cell viability and number of TRAP positive cells were determined using the Acid Phosphatase Leukocyte staining kit. The bone marrow cells were washed with PBS and stained according to the protocol recommended by the vendor. TRAP positive cells and osteoclasts were counted using an inverted microscope.
# Differentiation to osteoclasts then occurs in the presence of osteoclast differentiation factor or RANK ligand (Buckley and Fraser Buckley, K. A. and W. D. Fraser (2002). “Receptor activator for nuclear factor kappaB ligand and osteoprotegerin: regulators of bone physiology and immune responses/potential therapeutic agents and biochemical markers.” Ann Clin Biochem 39(Pt 6): 551-6.). To establish the cell culture model of osteoclasts, bone marrow cells were freshly harvested from the tibia and femur bones of mice and were seeded in 24-wells plates containing DMEM medium supplemented with 20 ng/ml M-CSF and 100 ng/ml RANK ligand, which are the conditions commonly used in murine bone marrow culturing conditions (Murray, L. J., T. J. Abrams, et al. (2003). “SU11248 inhibits tumor growth and CSF-1R-dependent osteolysis in an experimental breast cancer bone metastasis model.” Clin Exp Metastasis 20(8): 757-66.). The formation of osteoclasts was monitored by TRAP staining for 9 days. […] Starting from day 5, TRAP positive staining cells were observed, and the multi-nucleated TRAP positive staining osteoclasts (with ≧3 nuclei) were clearly detected on day 7 and became most abundant by day 9.
# […]. […] […]. […] […].
# in vivo = conditions: Sprague-Dawley, rat, po, 30 mg/kg
# Method: The serum levels of drug were analyzed by high performance liquid chromatography/mass spectrometry (HPLC/MS). […] After centrifugation to remove precipitated proteins, 5 μl of the supernatant was analyzed by HPLC/MS. The HPLC column was a Phenomenex Prodigy C18-ODS3 column (2 mm×50 mm, […]) maintained at 60° C. with a flow rate of 0.5 ml/min. […] The HPLC was interfaced to a Finnigan LCQ Advantage ion-trap mass spectrometer operated in the positive ion electrospray and full MS/MS mode. […] The limit of quantitation (LOQ) for the purposes of this assay was 0.004 μM. Quality control (QC) samples at two levels in the range of the standard curve were used to accept individual analytical sets. [drawing 3]
# PK data analysis was performed by noncompartmental method using Kinetica (v4.0.2, InnaPhase Corporation, Philadelphia, Pa.). The maximum plasma concentration (Cmax) and the time reaching Cmax (Tmax) were determined by visually inspecting the profiles of plasma level of drug vs. time. […] The area under the plasma drug concentration curve (AUC) was estimated by the trapezoidal rule.
# [5] = test system: PTH-stimulated bone resorption in fetal rat long bones; test: In vitro bone resorption assay (45Ca release from fetal rat long bones); assay type: cell-based
# Method: Fetal rat long bones were prepared and cultured as described previously. (Feyen J H M, Cardinaux F, Gamse R, Bruns C, Azria M, and Trechsel U. N-terminal truncation of salmon calcitonin leads to calcitonin antagonist. Structure activity relationship of N-terminally truncated salmon calcitonin fragments in vitro and in vivo. Biochemistry and Biophysiology Research Communication 1992; 187:8-13.) Briefly, pregnant Sprague Dawley rats were injected subcutaneously with 200 μCi ^45Ca on day 18 of gestation. The following day, radii and ulnae were dissected free from muscle and connective tissue. The cartilaginous ends of the bones were removed and the calcified diaphyses were cultured in 0.5 mL BGJ medium supplemented with 1 mg/mL bovine serum albumin (BSA, fraction V) in 24-well tissue culture plates in a CO2 incubator at 37° C. overnight to reduce free exchangeable calcium. Next, medium was replaced and the bone explants were maintained in culture for 5 days in the presence or absence of the compounds to be tested. On day 2, a 100 μL aliquot was taken from the medium and the medium was replaced with fresh medium with or without treatments. […] The amount of radioactive calcium was determined using a Beckman liquid scintillation counter. Bone resorption was expressed as the percentage ^45Ca released by day 5 of total amount of ^45Ca originally incorporated in bone explants.
molecule,measurement,setting,value
"calcitonin: a drug currently being used to manage hypercalcemia clinically, used as a reference compound (CGNLSTCMLGTYTQDFNKFHTFPQTAIGVGAP; ends and bridges not checked; cysteine pairing not given here; UniProt P01258 85-116, looked up) [reference compound]",inhibition of serum calcium levels,TPTX rats [1]; 5 IU/dose sc,"rapid inhibition of serum calcium levels, but the inhibition was reversed rapidly"
same,serum calcium levels vs control rats,"TPTX rats [1]; day 3, 5 IU/dose sc",no significant difference
Salmon Calcitonin [reference compound],Serum Calcium,"TPTX rats [2]; 5 IU ip, 0 Hour (before dosing)",6.68 ± 0.21 mg/dL
same,Serum Calcium,"TPTX rats [2]; 5 IU ip, 3 Hour",5.06 ± 0.13 mg/dL
same,Serum Calcium,"TPTX rats [2]; 5 IU ip, 6 Hour",5.14 ± 0.15 mg/dL
same,Serum Calcium,"TPTX rats [2]; 5 IU ip, 24 Hour",10.62 ± 0.64 mg/dL
COc1cccc(-c2cn(-c3ccc(CCN4CCC(O)CC4)cc3)c3ncnc(N)c23)c1 [CGP77675],bone resorption,ovariectomized rats,inhibitory potency
same,parathyroid hormone (PTH)-induced bone resorption,[3],inhibitory potency
CCN(CC)CCNC(=O)c1c(C)[nH]c(/C=C2\C(=O)Nc3ccc(F)cc32)c1C [Su-11248],formation and function of osteoclasts,osteoclasts,inhibitory potency
same,bone resorption in vivo,bone resorption,inhibitory potency
"Cc1nc(Nc2ncc(C(=O)Nc3c(C)cccc3Cl)s2)cc(N2CCN(CCO)CC2)n1 [BMS-354825, N-(2-chloro-6-methylphenyl)-2-((6-(4-(2-hydroxyethyl)-1-piperazinyl)-2-methyl-4-pyrimidinyl)amino)-1,3-thiazole-5-carboxamide]",formation of osteoclasts,"[4]; DMEM with M-CSF/RANK ligand, dosed on day 5 post seeding",inhibited dose dependently
same,IC50,"[4]; Mus musculus, Osteoclast, 120 h, read-out: IC50, drug concentration required to inhibit 50% of osteoclast formation",4.4 nM
same,number of osteoclasts,[4]; both culturing conditions: MDA-MB-231 condition media and DMEM with CSF/RANK ligand,significantly reduced
same,number of the TRAP positive staining osteoclasts,"[4]; various concentrations dosed on day 5, cultured up to 9 days",significantly reduced
same,inhibition of hypercalcemia compared with zometa 0.4 mg/kg/dose sc,"TPTX rats [1]; 30 mg/kg/dose po, once daily",more effective than zometa
same,inhibition of hypercalcemia compared with zometa 0.4 mg/kg/dose sc,"TPTX rats [1]; 15 and 5 mg/kg/dose po, multiple treatment schedule",comparable inhibitory effect
same,time to inhibition of serum calcium levels,"TPTX rats [1]; 30, 15, 5 mg/kg/dose po (QD×5), PTH infused 24 hr prior to treatment",≤ 3 h
same,inhibition of serum calcium levels,"TPTX rats [1]; 30, 15 and 5 mpk po (QD×1), upon initiation of PTH infusion",dose dependent inhibition
same,inhibition of serum levels of calcium,"TPTX rats [1]; 30 mpk (QD×1) and 15 mpk (2QD×1), orally",rapidly inhibited
same,serum calcium levels vs control rats,"TPTX rats [1]; day 3 post drug administration, 30 mpk QD×1 / 15 mpk 2QD×1 po",significantly below those of the control rats
same,time of maximum inhibition of serum calcium levels,"TPTX rats [1]; post drug administration, 15 and 30 mg/kg/dose po",4 h
same,Serum Calcium,"TPTX rats [2]; 3 mg/kg ip, 0 Hour (before dosing)",6.74 ± 0.29 mg/dL
same,Serum Calcium,"TPTX rats [2]; 3 mg/kg ip, 3 Hour",5.68 ± 0.26 mg/dL
same,Serum Calcium,"TPTX rats [2]; 3 mg/kg ip, 6 Hour",7.94 ± 1.19 mg/dL
same,Serum Calcium,"TPTX rats [2]; 3 mg/kg ip, 24 Hour",11.88 ± 0.61 mg/dL
same,significance of serum calcium effect vs vehicle,"TPTX rats [2]; 3 mg/kg ip, 3 hour time point",not significant
same,Serum Calcium,"TPTX rats [2]; 10 mg/kg ip, 0 Hour (before dosing)",6.68 ± 0.25 mg/dL
same,Serum Calcium,"TPTX rats [2]; 10 mg/kg ip, 3 Hour",5.80 ± 0.19 mg/dL
same,Serum Calcium,"TPTX rats [2]; 10 mg/kg ip, 6 Hour",5.36 ± 0.12 mg/dL
same,Serum Calcium,"TPTX rats [2]; 10 mg/kg ip, 24 Hour",7.70 ± 0.78 mg/dL
same,serum calcium levels vs vehicle and calcitonin,"TPTX rats [2]; 10 mg/kg ip, after 24 hours",significantly lower than both vehicle and calcitonin
same,AUC0-24 hr,in vivo,0.91 µM·h
same,Cmax,in vivo,60 nM
same,AUC(0-t),in vivo; AUC0-24 hr,1.16 µM·h
same,IC50,"[5]; Rattus norvegicus, PTH 10^-8 M, read-out: apparent IC50, PTH-stimulated release of 45Ca (bone resorption)",2 nM
same,PTH-stimulated bone resorption,[5]; at 5 nM,completely blocks
"O=P(O)(O)C(O)(Cn1ccnc1)P(=O)(O)O [zometa, reference compound]",onset of inhibition of serum calcium levels,"TPTX rats [1]; 0.4 mg/kg/dose sc (QD×5), PTH infused 24 hr prior to treatment",did not produce any appreciable inhibition until 24 hr
